Results taken from patent US10336792B2, “Antimicrobial peptide dendrimers” (priority 2014, dated 2019).
Converted amounts (≈) assume the structure as drawn. Positions of bridges follow the written chain, without caps; N, C: chain ends. Residues, ends and D or L forms follow the SMILES beside them. Groups on a side chain read outwards from the residue. Chains are numbered I, II in the order given. *: point of attachment. Stearoyl = CCCCCCCCCCCCCCCCCC(=O)*; X1 = CCCCCCCCCCCCCCCCCCCCCCCC(=O)*; Lauroyl = CCCCCCCCCCCC(=O)*; Hexanoyl = CCCCCC(=O)*

Tests used:
Assay type in all cases: cell-based
[1] = test system: Pseudomonas aeruginosa (strain PA01); assay: microbe, parasite or virus in culture; conditions: strain
Method in brief: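 P. aeruginosa PAO1 grown overnight in LB, diluted to OD600 0.001 and mixed with ⅔-step peptide dilutions, then incubated at 37 °C for 18–24 h. After MTT staining, the lowest concentration with no visible growth was read by eye as the MIC.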

[2] = test system: Escherichia coli (strain DH5α); conditions: DH5α
Method in brief: (§1)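 Broth microdilution MIC in LB; overnight cultures diluted to OD600 0.001 and mixed 1:1 with ⅔-serially diluted samples (stock 1 mg mL^−1 in H2O), 37° C for 18-24 h. MTT (0.1%) added; MIC read by eye as lowest concentration inhibiting visible growth (yellow).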

[3] = test system: Bacillus subtilis (strain BR151); conditions: strain BR151
Method in brief: as §1

| SMILES | MIC P. aeruginosa PAO1 [1] | MIC E. coli DH5α [2] | MIC B. subtilis BR151 [3] |
| --- | --- | --- | --- |
| CCCCCCCCCCCC(=O)NCCCC[C@H](NC(=O)[C@H](CC(C)C)NC(=O)[C@H](CCCCN)NC(=O)[C@H](CCCCNC(=O)[C@H](CC(C)C)NC(=O)[C@H](CCCCN)NC(=O)[C@H](CCCCNC(=O)[C@H](CC(C)C)NC(=O)[C@H](CCCCN)NC(=O)[C@H](CCCCNC(=O)[C@H](CC(C)C)NC(=O)[C@@H](N)CCCCN)NC(=O)[C@H](CC(C)C)NC(=O)[C@@H](N)CCCCN)NC(=O)[C@H](CC(C)C)NC(=O)[C@H](CCCCN)NC(=O)[C@H](CCCCNC(=O)[C@H](CC(C)C)NC(=O)[C@@H](N)CCCCN)NC(=O)[C@H](CC(C)C)NC(=O)[C@@H](N)CCCCN)NC(=O)[C@H](CC(C)C)NC(=O)[C@H](CCCCN)NC(=O)[C@H](CCCCNC(=O)[C@H](CC(C)C)NC(=O)[C@H](CCCCN)NC(=O)[C@H](CCCCNC(=O)[C@H](CC(C)C)NC(=O)[C@@H](N)CCCCN)NC(=O)[C@H](CC(C)C)NC(=O)[C@@H](N)CCCCN)NC(=O)[C@H](CC(C)C)NC(=O)[C@H](CCCCN)NC(=O)[C@H](CCCCNC(=O)[C@H](CC(C)C)NC(=O)[C@@H](N)CCCCN)NC(=O)[C@H](CC(C)C)NC(=O)[C@@H](N)CCCCN)C(N)=O [MSt-267, (KL)8(KKL)4(KKL)2(KKLKC12)] (I: H-KLK([Leu-Lys])KLKKLKKLK(Lauroyl)-NH2 / II: H-KLK([Leu-Lys])KLKKL / III: H-KLK([Leu-Lys])KL / IV: H-KLK([Leu-Lys])KL; amide I:6-IV:C, I:9-II:C, II:6-III:C) | 1 µg/mL (≈ 0.206 µM) | 1 µg/mL (≈ 0.206 µM) | 4 µg/mL (≈ 0.826 µM) |
| CCCCCCCCCCCCCCCCCC(=O)NCCCC[C@H](NC(=O)[C@H](CC(C)C)NC(=O)[C@H](CCCCN)NC(=O)[C@H](CCCCNC(=O)[C@H](CC(C)C)NC(=O)[C@H](CCCCN)NC(=O)[C@H](CCCCNC(=O)[C@H](CC(C)C)NC(=O)[C@H](CCCCN)NC(=O)[C@H](CCCCNC(=O)[C@H](CC(C)C)NC(=O)[C@@H](N)CCCCN)NC(=O)[C@H](CC(C)C)NC(=O)[C@@H](N)CCCCN)NC(=O)[C@H](CC(C)C)NC(=O)[C@H](CCCCN)NC(=O)[C@H](CCCCNC(=O)[C@H](CC(C)C)NC(=O)[C@@H](N)CCCCN)NC(=O)[C@H](CC(C)C)NC(=O)[C@@H](N)CCCCN)NC(=O)[C@H](CC(C)C)NC(=O)[C@H](CCCCN)NC(=O)[C@H](CCCCNC(=O)[C@H](CC(C)C)NC(=O)[C@H](CCCCN)NC(=O)[C@H](CCCCNC(=O)[C@H](CC(C)C)NC(=O)[C@@H](N)CCCCN)NC(=O)[C@H](CC(C)C)NC(=O)[C@@H](N)CCCCN)NC(=O)[C@H](CC(C)C)NC(=O)[C@H](CCCCN)NC(=O)[C@H](CCCCNC(=O)[C@H](CC(C)C)NC(=O)[C@@H](N)CCCCN)NC(=O)[C@H](CC(C)C)NC(=O)[C@@H](N)CCCCN)C(N)=O [MSt-284, (KL)8(KKL)4(KKL)2(KKLKC18)] (I: H-KLK([Leu-Lys])KLKKLKKLK(Stearoyl)-NH2 / II: H-KLK([Leu-Lys])KLKKL / III: H-KLK([Leu-Lys])KL / IV: H-KLK([Leu-Lys])KL; amide I:6-IV:C, I:9-II:C, II:6-III:C) | 9 µg/mL (≈ 1.83 µM) | 3 µg/mL (≈ 0.609 µM) | 6 µg/mL (≈ 1.22 µM) |
| CCCCCCCCCCCCCCCCCCCCCCCC(=O)NCCCC[C@H](NC(=O)[C@H](CC(C)C)NC(=O)[C@H](CCCCN)NC(=O)[C@H](CCCCNC(=O)[C@H](CC(C)C)NC(=O)[C@H](CCCCN)NC(=O)[C@H](CCCCNC(=O)[C@H](CC(C)C)NC(=O)[C@H](CCCCN)NC(=O)[C@H](CCCCNC(=O)[C@H](CC(C)C)NC(=O)[C@@H](N)CCCCN)NC(=O)[C@H](CC(C)C)NC(=O)[C@@H](N)CCCCN)NC(=O)[C@H](CC(C)C)NC(=O)[C@H](CCCCN)NC(=O)[C@H](CCCCNC(=O)[C@H](CC(C)C)NC(=O)[C@@H](N)CCCCN)NC(=O)[C@H](CC(C)C)NC(=O)[C@@H](N)CCCCN)NC(=O)[C@H](CC(C)C)NC(=O)[C@H](CCCCN)NC(=O)[C@H](CCCCNC(=O)[C@H](CC(C)C)NC(=O)[C@H](CCCCN)NC(=O)[C@H](CCCCNC(=O)[C@H](CC(C)C)NC(=O)[C@@H](N)CCCCN)NC(=O)[C@H](CC(C)C)NC(=O)[C@@H](N)CCCCN)NC(=O)[C@H](CC(C)C)NC(=O)[C@H](CCCCN)NC(=O)[C@H](CCCCNC(=O)[C@H](CC(C)C)NC(=O)[C@@H](N)CCCCN)NC(=O)[C@H](CC(C)C)NC(=O)[C@@H](N)CCCCN)C(N)=O [MSt-285, (KL)8(KKL)4(KKL)2(KKLKC24)] (I: H-KLK([Leu-Lys])KLKKLKKLK(X1)-NH2 / II: H-KLK([Leu-Lys])KLKKL / III: H-KLK([Leu-Lys])KL / IV: H-KLK([Leu-Lys])KL; amide I:6-IV:C, I:9-II:C, II:6-III:C) | 12 µg/mL (≈ 2.39 µM) | 5 µg/mL (≈ 0.997 µM) | 16 µg/mL (≈ 3.19 µM) |
| CCCCCCCCCCCCCCCCCC(=O)NCCCC[C@H](NC(=O)[C@H](CC(C)C)NC(=O)[C@H](CCCCN)NC(=O)[C@H](CCCCNC(=O)[C@H](CC(C)C)NC(=O)[C@H](CCCCN)NC(=O)[C@H](CCCCNC(=O)[C@H](CC(C)C)NC(=O)[C@@H](N)CCCCN)NC(=O)[C@H](CC(C)C)NC(=O)[C@@H](N)CCCCN)NC(=O)[C@H](CC(C)C)NC(=O)[C@H](CCCCN)NC(=O)[C@H](CCCCNC(=O)[C@H](CC(C)C)NC(=O)[C@@H](N)CCCCN)NC(=O)[C@H](CC(C)C)NC(=O)[C@@H](N)CCCCN)C(N)=O [MSt-286, (KL)4(KKL)2(KKLKC18)] (I: H-KLK([Leu-Lys])KLKKLK(Stearoyl)-NH2 / II: H-KLK([Leu-Lys])KL; amide I:6-II:C; N-terminus assumed) | 4 µg/mL (≈ 1.61 µM) | 3 µg/mL (≈ 1.21 µM) | 4 µg/mL (≈ 1.61 µM) |
| CCCCCC(=O)N[C@@H](CCCCN)C(=O)N[C@@H](CC(C)C)C(=O)NCCCC[C@H](NC(=O)[C@H](CC(C)C)NC(=O)[C@H](CCCCN)NC(=O)CCCCC)C(=O)N[C@@H](CCCCN)C(=O)N[C@@H](CC(C)C)C(=O)NCCCC[C@H](NC(=O)[C@H](CC(C)C)NC(=O)[C@H](CCCCN)NC(=O)[C@H](CCCCNC(=O)[C@H](CC(C)C)NC(=O)[C@H](CCCCN)NC(=O)CCCCC)NC(=O)[C@H](CC(C)C)NC(=O)[C@H](CCCCN)NC(=O)CCCCC)C(=O)N[C@@H](CCCCN)C(=O)N[C@@H](CC(C)C)C(=O)NCCCC[C@H](NC(=O)[C@H](CC(C)C)NC(=O)[C@H](CCCCN)NC(=O)[C@H](CCCCNC(=O)[C@H](CC(C)C)NC(=O)[C@H](CCCCN)NC(=O)[C@H](CCCCNC(=O)[C@H](CC(C)C)NC(=O)[C@H](CCCCN)NC(=O)CCCCC)NC(=O)[C@H](CC(C)C)NC(=O)[C@H](CCCCN)NC(=O)CCCCC)NC(=O)[C@H](CC(C)C)NC(=O)[C@H](CCCCN)NC(=O)[C@H](CCCCNC(=O)[C@H](CC(C)C)NC(=O)[C@H](CCCCN)NC(=O)CCCCC)NC(=O)[C@H](CC(C)C)NC(=O)[C@H](CCCCN)NC(=O)CCCCC)C(=O)N[C@@H](CCCCN)C(=O)N[C@@H](CC(C)C)C(N)=O [MSt-288, (C6KL)8(KKL)4(KKL)2(KKL)] (I: Hexanoyl-KLK([Leu-Lys-Hexanoyl])KLKKLKKL-NH2 / II: Hexanoyl-KLK([Leu-Lys-Hexanoyl])KLKKL / III: Hexanoyl-KLK([Leu-Lys-Hexanoyl])KL / IV: Hexanoyl-KLK([Leu-Lys-Hexanoyl])KL; amide I:6-IV:C, I:9-II:C, II:6-III:C) | 2 µg/mL (≈ 0.376 µM) | 5 µg/mL (≈ 0.94 µM) | 1 µg/mL (≈ 0.188 µM) |
